Measurements published in PMC5342726, “Identification of small molecule inhibitors of ERCC1-XPF that inhibit DNA repair and potentiate cisplatin efficacy in cancer cells” (Oncotarget, 2016).
pIC50: −log10 of the molar value.

Tests used:
[1] = system: ERCC1 protein; experiment: Western blot of ERCC1 protein stability; type: cell-based; conditions: 50 μM, 24, 48 and 72 hours, compared to cisplatin control treatment
Experimental: In order to study if the compounds' inhibitory activity of ERCC1-XPF incision is due to inhibition of DNA binding ability, we performed EMSAs. One possibility for ERCC1-XPF enzyme inhibition is via inhibition of the ERCC1-XPF binding to DNA. In this assay, we incubated the titrated Hit 1 or 2 respectively with purified ERCC1-XPF on ice and reactions were initiated by the addition of the 5'-[^32P] radiolabeled DNA substrate 37°C. The samples were separated on a 10% native gel and the products were visualized via phosphorimager analysis. […] If these compounds were affecting the protein-protein interaction between ERCC1 and XPF, we would expect to observe loss of protein following treatment similar to what we have observed with ERCC1 and XPF knockdowns.
Supplementary Figure S3: A. Analysis of 16168 and 143099 on XPG incision activity. Compounds were titrated and inhibition of
XPG incision activity was quantified for 16168 (open circles) or 143099 (filled circles). The results are presented as the mean ± SEM of 3
independent experiments. B. Western bots assessing ERCC1 protein stability following cisplatin (IC50 concentration), 143099 (50 μM) and […]

[2] = system: HhaI; experiment: Gel-based nuclease assay, HhaI; type: biochemical; conditions: compound titration
[3] = target: T1, ERCC1-XPF (Homo sapiens, UniProt P07992+Q92889); experiment: EMSA, binding of ERCC1-XPF to DNA; conditions: for effect on binding of purified ERCC1-XPF to DNA: compound titration, concentrations used in further in vitro experiments
T1 construct: made in house; host or cells: Sf9 insect cells, baculovirus (obtained from Aziz Sancar)
T1 sequence (Q92889 1-916): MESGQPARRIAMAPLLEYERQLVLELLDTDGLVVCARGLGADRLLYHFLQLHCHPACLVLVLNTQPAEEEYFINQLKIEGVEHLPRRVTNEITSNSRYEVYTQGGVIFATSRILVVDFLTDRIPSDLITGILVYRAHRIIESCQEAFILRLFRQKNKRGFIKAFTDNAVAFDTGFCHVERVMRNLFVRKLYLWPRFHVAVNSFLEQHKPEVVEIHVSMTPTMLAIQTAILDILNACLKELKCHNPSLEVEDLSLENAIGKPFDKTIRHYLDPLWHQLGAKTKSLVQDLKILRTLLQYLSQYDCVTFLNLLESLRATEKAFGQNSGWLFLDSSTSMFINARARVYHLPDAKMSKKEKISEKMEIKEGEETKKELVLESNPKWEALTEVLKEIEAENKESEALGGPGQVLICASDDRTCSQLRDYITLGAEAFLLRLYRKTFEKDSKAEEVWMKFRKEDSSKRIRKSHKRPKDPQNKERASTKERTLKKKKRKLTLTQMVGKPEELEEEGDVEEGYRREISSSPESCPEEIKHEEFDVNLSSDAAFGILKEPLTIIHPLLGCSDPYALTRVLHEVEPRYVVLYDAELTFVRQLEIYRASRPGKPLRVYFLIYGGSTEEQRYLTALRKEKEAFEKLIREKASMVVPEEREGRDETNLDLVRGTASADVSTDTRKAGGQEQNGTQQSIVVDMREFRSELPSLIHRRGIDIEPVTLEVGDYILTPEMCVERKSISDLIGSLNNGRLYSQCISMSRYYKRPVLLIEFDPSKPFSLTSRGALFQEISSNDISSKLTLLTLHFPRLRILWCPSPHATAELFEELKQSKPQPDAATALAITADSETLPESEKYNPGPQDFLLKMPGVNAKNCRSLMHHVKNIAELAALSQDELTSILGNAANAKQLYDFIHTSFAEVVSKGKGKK
T1 sequence (P07992 1-297): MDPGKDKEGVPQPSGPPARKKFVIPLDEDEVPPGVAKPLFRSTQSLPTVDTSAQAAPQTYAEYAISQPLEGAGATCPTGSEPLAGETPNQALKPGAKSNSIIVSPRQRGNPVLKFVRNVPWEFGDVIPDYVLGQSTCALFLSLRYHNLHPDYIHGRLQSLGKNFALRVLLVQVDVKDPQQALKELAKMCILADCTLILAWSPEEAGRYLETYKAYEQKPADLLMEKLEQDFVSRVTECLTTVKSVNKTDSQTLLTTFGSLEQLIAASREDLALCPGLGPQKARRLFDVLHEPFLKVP
Experimental: In order to study if the compounds' inhibitory activity of ERCC1-XPF incision is due to inhibition of DNA binding ability, we performed EMSAs [23]. […] In this assay, we incubated the titrated Hit 1 or 2 respectively with purified ERCC1-XPF on ice and reactions were initiated by the addition of the 5'-[^32P] radiolabeled DNA substrate 37°C. The samples were separated on a 10% native gel and the products were visualized via phosphorimager analysis.
Sciences Core at Karmanos Cancer Institute using DNA Binding-electrophoretic mobility shift assay
was used for testing the effect of compounds on the DNA
in SF9 insect cells using a baculovirus expression system requires metal for DNA incision, MgCl2 was excluded
0.1M EDTA was added to the
Post incubation, glutaraldehyde was added to a final
column, which was initially loaded and washed with a low minutes at 37°C. The reaction was run on a 10% native

[4] = target: T1, ERCC1-XPF; experiment: Gel-based in vitro incision assay, ERCC1-XPF; type: biochemical; conditions: purified ERCC1-XPF, 5'-32P DNA substrate, 37°C; read-out: IC50 from the gel-based assay
Experimental: The gel-based in vitro incision assay has been described and extensively used. Here, we titrated Hit 1 (Figure 2A) with ERCC1-XPF or control endonuclease HhaI (Figure 2B) on ice and reactions were initiated by the addition of the 5'-[^32P] radiolabeled DNA substrate at 37°C. The products are visualized via phosphorimager analysis and the ERCC1-XPF or HhaI incised product is illustrated as a faster migrating band in the gel (Figure 2A and 2B).
Hits from the HTS fluorescence screen were validated in a gel based nuclease activity assay as previously described. This assay is robust and highly quantitative. Briefly, the 26- mer DNA substrate (Figure 1) was labeled on the 5'-terminus with [γ^32P]-ATP using T4 polynucleotide kinase (NEB) for 30 minutes at 37°C. The 5'-labeled DNA substrate was annealed to its complementary strand by heating to 95°C for 5 minutes, followed by 65°C and then 37°C for a total of 2 hours. This substrate was gel-purified on a 10% native polyacrylamide gel in TBE (Tris, borate, EDTA electrophoresis buffer), developed, cut and kept for gel elution overnight at 4°C. Post gel elution, the substrate was ethanol precipitated and the counts were determined. The final substrate was stored at −20°C. […]

Q: With `Cc1ccc(S(=O)(=O)Oc2cc(S(=O)(=O)O)cc3cc(S(=O)(=O)O)cc(N)c23)cc1` [NSC16168] as the compound, how does the “effect on ERCC1 protein levels” value [1] read?
A: The value was “neither Hit 1 nor Hit 2 affects ERCC1 protein levels”.

Q: And the “inhibition of HhaI nuclease activity, gel-based assay” value [2]?
A: The value was “does not inhibit the nuclease activity”.

Q: And the “effect on binding of purified ERCC1-XPF to DNA” value [3]?
A: Its value is “does not affect DNA binding of ERCC1-XPF”.

Q: And the “effect on binding of ERCC1-XPF to DNA at the highest concentrations” value ([3]; highest concentrations)?
A: The value was “minor effect on the DNA binding”.

Q: What about the pIC50 [4] of the same compound?
A: The pIC50 was about 6.30.

Q: Which results are given for `Oc1cc(O)c2c(c1)OC(c1ccc(O)c(O)c1)C(O)C2c1c(O)cc(O)c2c1OC(c1ccc(O)c(O)c1)C(O)C2` (stereo not drawn) [NSC143099]?
A: effect on ERCC1 protein levels [1]: neither Hit 1 nor Hit 2 affects ERCC1 protein levels; inhibition of HhaI nuclease activity, gel-based assay [2]: does not inhibit the nuclease activity; effect on binding of purified ERCC1-XPF to DNA [3]: does not affect the binding of purified ERCC1-XPF to DNA; pIC50 [4]: ~7.60
